# From ChEMBL document CHEMBL5244281, “Tackling multidrug-resistant Staphylococcus aureus by natural products and their analogues acting as NorA efflux pump inhibitors” (Bioorg Med Chem, 2023)
# Legend:
# [1] = target: T1, Quinolone resistance protein NorA (Staphylococcus aureus) (UniProt P0A0J7); assay: Potentiation of ciprofloxacin-mediated inhibition of NorA efflux pump in Staphylococcus aureus 1199B overexpressing NorA efflux pump assessed as reduction in ciprofloxacin MIC (Rvb= […] ug/ml)
# T1 sequence (whole entry): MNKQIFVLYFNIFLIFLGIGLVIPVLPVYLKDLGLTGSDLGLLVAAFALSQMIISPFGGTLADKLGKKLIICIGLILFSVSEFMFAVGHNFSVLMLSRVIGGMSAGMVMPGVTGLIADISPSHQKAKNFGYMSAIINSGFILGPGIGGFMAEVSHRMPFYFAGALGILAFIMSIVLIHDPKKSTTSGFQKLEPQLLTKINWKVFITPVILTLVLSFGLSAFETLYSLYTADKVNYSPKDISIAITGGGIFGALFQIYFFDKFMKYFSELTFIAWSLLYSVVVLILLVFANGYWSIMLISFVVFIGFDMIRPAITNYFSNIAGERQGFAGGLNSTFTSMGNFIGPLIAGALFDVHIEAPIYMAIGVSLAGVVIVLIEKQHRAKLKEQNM
# [2] = tested on: Staphylococcus aureus; assay: Antibacterial activity against norfloxacin resistant Staphylococcus aureus 1199B overexpressing NorA assessed as bacterial growth inhibition; assay type: functional
# [3] = tested on: Staphylococcus aureus; assay: Antibacterial activity against norfloxacin resistant Staphylococcus aureus 1199 assessed as bacterial growth inhibition; assay type: functional
# [4] = tested on: Staphylococcus aureus; assay: Antimicrobial activity against Staphylococcus aureus ATCC 29213 assessed as bacterial growth inhibition incubated for 18 hrs by broth microdilution assay; assay type: functional
# [5] = tested on: Klebsiella pneumoniae; assay: Antimicrobial activity against Klebsiella pneumoniae 1213-2 assessed as bacterial growth inhibition incubated for 18 hrs by broth microdilution assay; assay type: functional
# [6] = tested on: Staphylococcus aureus; assay: Antimicrobial activity against Staphylococcus aureus ATCC 43300 assessed as bacterial growth inhibition incubated for 18 hrs by broth microdilution assay; assay type: functional
# [7] = tested on: Staphylococcus aureus; assay: Antimicrobial activity against Staphylococcus aureus BAA-44 assessed as bacterial growth inhibition incubated for 18 hrs by broth microdilution assay; assay type: functional
# [8] = tested on: Enterococcus faecium; assay: Antimicrobial activity against Enterococcus faecium ATCC 700221 assessed as bacterial growth inhibition incubated for 18 hrs by broth microdilution assay; assay type: functional
# [9] = tested on: Enterococcus faecalis; assay: Antimicrobial activity against Enterococcus faecalis ATCC 29212 assessed as bacterial growth inhibition incubated for 18 hrs by broth microdilution assay; assay type: functional
# [10] = tested on: Escherichia coli; assay: Antimicrobial activity against Escherichia coli ATCC 25922 assessed as bacterial growth inhibition incubated for 18 hrs by broth microdilution assay; assay type: functional
# [11] = tested on: Staphylococcus aureus; assay: Antibacterial activity against norfloxacin resistant Staphylococcus aureus IS-58 overexpressing TetK efflux pump gene assessed as bacterial growth inhibition incubated for 24 hrs by CLSI protocol based microdilution method; assay type: functional
# [12] = tested on: Staphylococcus aureus; assay: Antibacterial activity against norfloxacin resistant Staphylococcus aureus 1199B overexpressing NorA efflux pump gene assessed as bacterial growth inhibition incubated for 24 hrs by CLSI protocol based microdilution method; assay type: functional
# [13] = tested on: Staphylococcus aureus; assay: Antibacterial activity against norfloxacin resistant Staphylococcus aureus RN4220 overexpressing […] efflux pump gene assessed as bacterial growth inhibition incubated for 24 hrs by CLSI protocol based microdilution method; assay type: functional
# [14] = tested on: Staphylococcus aureus; assay: Synergistic antibacterial activity against Staphylococcus aureus 1199B overexpressing NorA gene assessed as fractional inhibitory concentration index at 2 ug/ml in presence of norfloxacin; assay type: functional; details: dose 2 µg/ml
# [15] = tested on: Staphylococcus aureus; assay: Antibacterial activity against methicillin-resistant Staphylococcus aureus 1199B overexpressing NorA gene assessed as bacterial growth inhibition; assay type: functional
# [16] = tested on: Staphylococcus aureus; assay: Antibacterial activity against norfloxacin resistant Staphylococcus aureus 1199B overexpressing NorA assessed as bacterial growth inhibition incubated for 24 hrs by resazurin based microdilution assay; assay type: functional
# [17] = tested on: Candida albicans; assay: Antifungal activity against Candida albicans NEWP031 assessed as bacterial growth inhibition incubated for 24 hrs by resazurin based microdilution assay; assay type: functional
# [18] = tested on: Escherichia coli; assay: Antibacterial activity against Escherichia coli ATCC […] assessed as bacterial growth inhibition incubated for 24 hrs by resazurin based microdilution assay; assay type: functional
# [19] = target: T1, Quinolone resistance protein NorA (Staphylococcus aureus); assay: Potentiation of norfloxacin-induced inhibition of NorA efflux in Staphylococcus aureus 1199B overexpressing NorA assessed as reduction in norfloxacin MIC at 1/8 times of MIC incubated for 24 hrs by CLSI based assay (Rvb= 322.54 ug/ml)
# [20] = tested on: Staphylococcus aureus; assay: Antibacterial activity against Staphylococcus aureus 1199 assessed as bacterial growth inhibition incubated for 24 hrs by resazurin based microdilution assay; assay type: functional
# [21] = target: Multidrug export protein MepA (Staphylococcus aureus (strain NCTC 8325)) (UniProt Q2G140); assay: Potentiation of EtBr-induced inhibition of MepA efflux in Staphylococcus aureus K2068 overexpressing MepA assessed as reduction in EtBr MIC at 1/8 times of MIC incubated for 24 hrs by CLSI based assay (Rvb= 322.54 ug/ml)
# [22] = tested on: Staphylococcus aureus; assay: Antibacterial activity against Staphylococcus aureus SA10 assessed as bacterial growth inhibition incubated for 24 hrs by resazurin based microdilution assay; assay type: functional
# [23] = target: T1, Quinolone resistance protein NorA (Staphylococcus aureus); assay: Potentiation of EtBr-induced inhibition of NorA efflux in Staphylococcus aureus 1199B overexpressing NorA assessed as reduction in EtBr MIC at 256 ug/ml incubated for 24 hrs by resazurin based assay (Rvb= 32 ug/ml); details: dose 256.0 µg/ml
# [24] = tested on: Staphylococcus aureus; assay: Antibacterial activity against Staphylococcus aureus ATCC 25923 assessed as bacterial growth inhibition incubated for 24 hrs by resazurin based microdilution assay; assay type: functional
# [25] = tested on: Staphylococcus aureus; assay: Synergistic antibacterial activity against Staphylococcus aureus 1199B overexpressing NorA assessed as fractional Inhibitory concentration index at 64 ug/ml in presence of norfloxacin by broth dilution method; assay type: functional; details: dose 64 µg/ml
# [26] = target: T1, Quinolone resistance protein NorA (Staphylococcus aureus); details: 1199B, dose 64.0 µg/ml
# [27] = tested on: Staphylococcus aureus; assay: Antibacterial activity against tetracycline-resistant Staphylococcus aureus XU212 assessed as bacterial growth inhibition incubated for 18 hrs by MTT assay; assay type: functional
# [28] = tested on: Staphylococcus aureus; assay: Antibacterial activity against Staphylococcus aureus ATCC25923 assessed as bacterial growth inhibition incubated for 18 hrs by MTT assay; assay type: functional
# [29] = tested on: Staphylococcus aureus; assay: Antibacterial activity against Staphylococcus aureus 1199B overexpressing NorA assessed as bacterial growth inhibition incubated for 18 hrs by MTT assay; assay type: functional
# [30] = tested on: Staphylococcus aureus; assay: Antibacterial activity against Staphylococcus aureus RN4220 assessed as bacterial growth inhibition incubated for 18 hrs by MTT assay; assay type: functional
# [31] = tested on: Staphylococcus aureus; assay: Antibacterial activity against Staphylococcus aureus EMRSA-15 assessed as bacterial growth inhibition incubated for 18 hrs by MTT assay; assay type: functional
# [32] = tested on: Staphylococcus aureus; assay: Antibacterial activity against Staphylococcus aureus EMRSA-16 assessed as bacterial growth inhibition incubated for 18 hrs by MTT assay; assay type: functional
# [33] = target: T1, Quinolone resistance protein NorA (Staphylococcus aureus); details: 1199B, dose 128.0 µg/ml, time 24.0 hrs
# [34] = tested on: Escherichia coli; assay: Potentiation of gentamicin-induced antibacterial activity against Escherichia coli 06 assessed as gentamicin MIC at 1/8 times of MIC (Rvb= 322 ug/ml); assay type: functional
# [35] = target: T1, Quinolone resistance protein NorA (Staphylococcus aureus); assay: Potentiation of EtBr-induced inhibition of NorA efflux pump in Staphylococcus aureus 1199B overexpressing NorA efflux pump assessed as reduction in EtBr MIC at 1/8 times of MIC by resazurin based assay (Rvb= 512 ug/ml)
smiles,measurement,setting,value
CCOC(=O)/C=C/C(C)=C/c1ccc2c(c1)CCC(C)(C)O2,MIC,[1],3.12 µg/mL
C=C1CCC2CC1C2(C)C (stereo not drawn) [BETA-PINENE],MIC,[2],> 1020 µg/mL
same,MIC,[3],> 1020 µg/mL
CN(CC[C@H](N)CC(=O)N[C@H]1C=C[C@H](n2ccc(N)nc2=O)O[C@@H]1C(=O)O)C(=N)N [BLASTICIDIN_S],MIC,[4],50 µg/mL
same,MIC,[5],50 µg/mL
same,MIC,[6],100 µg/mL
same,MIC,[7],25 µg/mL
same,MIC,[8],200 µg/mL
same,MIC,[9],25 µg/mL
same,MIC,[10],100 µg/mL
O=C(O)/C=C/c1ccc(O)c(O)c1 [CAFFEIC ACID],MIC,[11],1020 µg/mL
same,MIC,[12],1020 µg/mL
same,MIC,[13],1020 µg/mL
COc1cc(-c2cc(=O)c3c(O)cc(O)cc3o2)ccc1O [CHRYSOERIOL],fractional inhibitory concentration index (FICI),[14],0.266
same,MIC,[15],256 µg/mL
C=CCc1ccc(OC)cc1 [ESTRAGOLE],MIC,[16],≥ 1020 µg/mL
same,MIC,[17],2050 µg/mL
same,MIC,[18],2050 µg/mL
same,MIC,[19],256 µg/mL
same,MIC,[20],≥ 1020 µg/mL
same,MIC,[21],256 µg/mL
same,MIC,[22],≥ 1020 µg/mL
same,MIC,[23],16 µg/mL
same,MIC,[24],≥ 1020 µg/mL
O=C(O)c1cc(O)c(O)c(O)c1 [GALLIC ACID],MIC,[11],1020 µg/mL
same,MIC,[12],1020 µg/mL
same,MIC,[13],1020 µg/mL
O=c1c(-c2ccc(O)cc2)coc2cc(O)cc(O)c12 [GENISTEIN],fractional inhibitory concentration index (FICI),[25],0.38
same,MIC,[26],16 µg/mL
same,MIC,[27],32 µg/mL
same,MIC,[28],32 µg/mL
same,MIC,[29],32 µg/mL
same,MIC,[30],32 µg/mL
same,MIC,[31],32 µg/mL
same,MIC,[32],8 µg/mL
CC(C)=CCC/C(C)=C\CO [NEROL],MIC,[16],≥ 1020 µg/mL
same,MIC,[17],212 µg/mL
same,MIC,[18],512 µg/mL
same,MIC,[20],≥ 1020 µg/mL
same,MIC,[22],≥ 1020 µg/mL
same,MIC,[23],16 µg/mL
same,MIC,[33],32 µg/mL
same,MIC,[24],≥ 1020 µg/mL
COc1cc2oc(-c3ccc(O)cc3)c(OC)c(=O)c2c(O)c1OC [PENDULETIN],fractional inhibitory concentration index (FICI),[14],0.079
same,MIC,[15],256 µg/mL
CC1(C)CC[C@]2(C)CC[C@]3(C)C(=CC[C@@H]4[C@@]5(C)CC[C@H](O)C(C)(C)[C@@H]5CC[C@]43C)[C@@H]2C1 [beta-AMYRIN],MIC,[34],203 µg/mL
same,MIC,[35],406 µg/mL
